Here are results for 6 compounds from patent publication US9040727B2, “Histone deacetylase inhibitor of benzamides and use thereof” (Shanghai Institute of Pharmaceutical Industry, priority 2011, dated 2015).

One may read the IC50 as the concentration that inhibits the measured activity by half. Lower therefore signals greater potency. For orientation: inhibition means the percentage by which the read-out fell short of the control. A low value points to a response near the control.

The first test relates to HDACs. Description: In vitro inhibition of HDACs (HDAC Inhibitor Drug Screening Kit).
Conditions: not given
In kind it is biochemical. On the procedure: The test was conducted according to the instructions in the HDAC Inhibitor Drug Screening Kit (Biovision/Catalog #50051, BPS).
(§1) Each dilution sample was placed in two wells and the enzyme inhibition IC50 of the compound was tested.
The compound `Nc1ccc(F)cc1NC(=O)c1ccc(CNC(=O)c2cccc3ccccc23)cc1` [Compound V-17] displayed an IC50 of 920 nM.

Consider `CC(=O)c1ccc2[nH]c(C(=O)NCc3ccc(C(=O)Nc4ccccc4N)cc3)cc2c1` [Compound V-26], for which the IC50 amounted to 1370 nM.

As for `Nc1ccc2[nH]c(C(=O)NCc3ccc(C(=O)Nc4ccccc4N)cc3)cc2c1` [Compound V-23], the IC50 turned out to be 6890 nM. This IC50 lies about 5-fold higher than the previous one.

`Nc1cnccc1NC(=O)c1ccc(CNC(=O)c2cc3ccccc3s2)cc1` [Compound V-28]: the IC50 was found to be 1310 nM.

The same test, now with this note: comparison with MS-275.
Regarding `Nc1ccccc1NC(=O)c1ccc(CNC(=O)c2cccc3ccccc23)cc1` [Compound V-15], the “inhibitory activity on HDACs compared with MS-275 (by IC50)” value is “better inhibitory activities than MS-275”.

As to `Nc1ccc(F)cc1NC(=O)c1ccc(CNC(=O)c2cccc3ccccc23)cc1` [Compound V-17], the “inhibitory activity on HDACs compared with MS-275 (by IC50)” value is “better inhibitory activities than MS-275”.

Another test has as its system Hep3B2.1-7 human liver cancer cells. Description: In vitro anti-proliferative effect, CCK-8 method. In kind it is cell-based. The note with it: Homo sapiens, Hep3B. The procedure: (§2) The inhibitory activities of the compounds towards Hut78 T lymphocytic leukemia cells, Jurkat E6-1 human T-cell lymphoma, A549 human lung cancer cells, K562 human chronic myelogenous leukemia cells, Hep3B2.1-7 human liver cancer cells, MDA-MB-435s human breast cancer cells, Colo320 human rectal cancer cell line, and PC-3 human prostate cancer were determined. The inhibition percentages as represented by IC50 values were obtained through CCK-8 method.
A general note: Formazan colour is commonly taken as a measure of viable cells.
Compound `Nc1ccccc1NC(=O)c1ccc(CNC(=O)c2cccc3ccccc23)cc1` [Compound V-15] registered an IC50 of 2760 nM. This counts as single-digit micromolar.

As for `Nc1ccc(-c2ccco2)cc1NC(=O)c1ccc(CNC(=O)c2nc3ccccc3[nH]2)cc1` [Compound V-14], 1520 nM corresponded to half-maximal inhibition (IC50).

Regarding `CC(=O)c1ccc2[nH]c(C(=O)NCc3ccc(C(=O)Nc4ccccc4N)cc3)cc2c1` [Compound V-26], the IC50 was found to be 52200 nM.

The subject of another test is Hut78 T lymphocytic leukemia cells. Description: In vitro anti-proliferative effect, CCK-8 method. In kind it is cell-based. The note with it: Homo sapiens, HuT78. The procedure:
as §2
On to `Nc1ccccc1NC(=O)c1ccc(CNC(=O)c2cccc3ccccc23)cc1` [Compound V-15], for which the IC50 came to 2780 nM.

`Nc1ccc(-c2ccco2)cc1NC(=O)c1ccc(CNC(=O)c2nc3ccccc3[nH]2)cc1` [Compound V-14]: the IC50 turned out to be 356 nM.

With `CC(=O)c1ccc2[nH]c(C(=O)NCc3ccc(C(=O)Nc4ccccc4N)cc3)cc2c1` [Compound V-26], the IC50 was 231 nM.

The next test concerns Jurkat E6-1 human T-cell lymphoma. Kind of test: In vitro anti-proliferative effect, CCK-8 method. The note with it: Homo sapiens. In kind it is cell-based. On the procedure:
as §2
Regarding `Nc1ccccc1NC(=O)c1ccc(CNC(=O)c2cccc3ccccc23)cc1` [Compound V-15], inhibition was half-maximal at 1370 nM (IC50).

Consider `Nc1ccc(-c2ccco2)cc1NC(=O)c1ccc(CNC(=O)c2nc3ccccc3[nH]2)cc1` [Compound V-14], for which half-maximal inhibition (IC50) was put at 458 nM.

`CC(=O)c1ccc2[nH]c(C(=O)NCc3ccc(C(=O)Nc4ccccc4N)cc3)cc2c1` [Compound V-26] displayed an IC50 of 12400 nM.

Another test concerns Colo320 human rectal cancer cell line. Description: In vitro anti-proliferative effect, CCK-8 method. The note with it: Homo sapiens, COLO 320. In kind it is cell-based. On the procedure: as §2
Turning to `Nc1ccccc1NC(=O)c1ccc(CNC(=O)c2cccc3ccccc23)cc1` [Compound V-15], the midpoint of inhibition, the IC50, lay at 9340 nM.

On to `CC(=O)c1ccc2[nH]c(C(=O)NCc3ccc(C(=O)Nc4ccccc4N)cc3)cc2c1` [Compound V-26], for which 88400 nM corresponded to half-maximal inhibition (IC50).

In the next test the test system is PC-3 human prostate cancer. Kind of test: In vitro anti-proliferative effect, CCK-8 method. In kind it is cell-based. The note with it: Homo sapiens. The procedure: as §2
Take `Nc1ccccc1NC(=O)c1ccc(CNC(=O)c2cccc3ccccc23)cc1` [Compound V-15]: the IC50 was determined as 2630 nM. This counts as single-digit micromolar.

Take `CC(=O)c1ccc2[nH]c(C(=O)NCc3ccc(C(=O)Nc4ccccc4N)cc3)cc2c1` [Compound V-26]: the IC50 turned out to be 12200 nM. This IC50 lies about 4.6-fold higher than the previous one.

The next test relates to A549 human lung cancer cells. Kind of test: In vitro anti-proliferative effect, CCK-8 method. In kind it is cell-based. The note with it: Homo sapiens. The procedure:
as §2
In turn, `Nc1ccc(-c2ccco2)cc1NC(=O)c1ccc(CNC(=O)c2nc3ccccc3[nH]2)cc1` [Compound V-14] had a 50% inhibitory concentration (IC50) of 3140 nM.

`CC(=O)c1ccc2[nH]c(C(=O)NCc3ccc(C(=O)Nc4ccccc4N)cc3)cc2c1` [Compound V-26] showed an IC50 of 29900 nM. Compared with the last compound, the IC50 is about 9.5-fold higher.

A further test has as its system K562 human chronic myelogenous leukemia cells. Kind of test: In vitro anti-proliferative effect, CCK-8 method. In kind it is cell-based.
Conditions: not given
On the procedure: as §2
On to `Nc1ccccc1NC(=O)c1ccc(CNC(=O)c2cccc3ccccc23)cc1` [Compound V-15], for which the IC50 stood at 2880 nM. In other words, the single-digit micromolar range.

In the case of `Nc1ccc(-c2ccco2)cc1NC(=O)c1ccc(CNC(=O)c2nc3ccccc3[nH]2)cc1` [Compound V-14], half-maximal inhibition (IC50) was put at 437 nM. This IC50 is about 6.6-fold lower than that of the compound before.

As for `CC(=O)c1ccc2[nH]c(C(=O)NCc3ccc(C(=O)Nc4ccccc4N)cc3)cc2c1` [Compound V-26], inhibition was half-maximal at 19900 nM (IC50).

For another test, the target named is HDAC1 (Homo sapiens (Human), UniProt Q13547). Description: In vitro inhibitory activity towards HDAC1 (HDAC Inhibitor Drug Screening Kit). The format is biochemical.
Sequence of HDAC1 (Q13547 whole entry): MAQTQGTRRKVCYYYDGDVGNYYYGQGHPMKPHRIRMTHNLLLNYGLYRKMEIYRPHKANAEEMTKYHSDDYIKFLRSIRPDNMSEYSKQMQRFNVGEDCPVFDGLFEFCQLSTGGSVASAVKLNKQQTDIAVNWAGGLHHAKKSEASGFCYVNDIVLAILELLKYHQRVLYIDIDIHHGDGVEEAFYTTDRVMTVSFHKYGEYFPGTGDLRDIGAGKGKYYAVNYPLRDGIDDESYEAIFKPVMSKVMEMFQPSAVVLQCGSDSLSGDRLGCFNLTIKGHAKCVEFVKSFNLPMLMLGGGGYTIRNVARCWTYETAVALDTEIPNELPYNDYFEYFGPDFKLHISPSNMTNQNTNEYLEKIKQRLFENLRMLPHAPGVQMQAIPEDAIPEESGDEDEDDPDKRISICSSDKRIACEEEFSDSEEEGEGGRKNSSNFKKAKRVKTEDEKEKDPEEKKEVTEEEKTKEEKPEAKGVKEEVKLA
Conditions: not given
The procedure:
(1) The compounds to be tested were each individually prepared as 10 μM and 1 μM solutions and their inhibitory activities towards HDAC1 at these concentrations were tested.
as §1
With `Nc1ccc(F)cc1NC(=O)c1ccc(CNC(=O)c2cccc3ccccc23)cc1` [Compound V-17], inhibition was half-maximal at 735 nM (IC50). In other words, the sub-micromolar range.

Take `CC(=O)c1ccc2[nH]c(C(=O)NCc3ccc(C(=O)Nc4ccccc4N)cc3)cc2c1` [Compound V-26]: the IC50 is 509 nM.

`Nc1ccc2[nH]c(C(=O)NCc3ccc(C(=O)Nc4ccccc4N)cc3)cc2c1` [Compound V-23] registered an IC50 of 998 nM.

Compound `Nc1cnccc1NC(=O)c1ccc(CNC(=O)c2cc3ccccc3s2)cc1` [Compound V-28] showed an IC50 of 731 nM. This IC50 and that of the compound before are within 1.5-fold of each other.

Staying with this test, now noted: comparison with MS-275.
As for `Nc1ccccc1NC(=O)c1ccc(CNC(=O)c2cccc3ccccc23)cc1` [Compound V-15], the “inhibitory activity against HDAC1 compared with MS-275 (by IC50)” value was “better inhibitory activities against HDAC1 as compared with MS-275”.

Take `Nc1ccc(-c2ccco2)cc1NC(=O)c1ccc(CNC(=O)c2nc3ccccc3[nH]2)cc1` [Compound V-14]: the “inhibitory activity against HDAC1 compared with MS-275 (by IC50)” value is “better inhibitory activities against HDAC1 as compared with MS-275”.

As to `CC(=O)c1ccc2[nH]c(C(=O)NCc3ccc(C(=O)Nc4ccccc4N)cc3)cc2c1` [Compound V-26], the “inhibitory activity against HDAC1 compared with MS-275 (by IC50)” value is recorded as “better inhibitory activities against HDAC1 as compared with MS-275”.

The same test, now with this note: compound at 1 μM.
`Nc1ccccc1NC(=O)c1ccc(CNC(=O)c2cccc3ccccc23)cc1` [Compound V-15] displayed an inhibition at 1 µM of 29.8%.

`Nc1ccc(-c2ccco2)cc1NC(=O)c1ccc(CNC(=O)c2nc3ccccc3[nH]2)cc1` [Compound V-14] displayed an inhibition at 1 µM of 74.8%.

With `Nc1ccc(F)cc1NC(=O)c1ccc(CNC(=O)c2cccc3ccccc23)cc1` [Compound V-17], the inhibition at 1 µM stood at 54%.

Compound `CC(=O)c1ccc2[nH]c(C(=O)NCc3ccc(C(=O)Nc4ccccc4N)cc3)cc2c1` [Compound V-26] displayed an inhibition at 1 µM of 59.3%.

`Nc1ccc2[nH]c(C(=O)NCc3ccc(C(=O)Nc4ccccc4N)cc3)cc2c1` [Compound V-23]: at 1 µM the inhibition was 67.1%.

As for `Nc1cnccc1NC(=O)c1ccc(CNC(=O)c2cc3ccccc3s2)cc1` [Compound V-28], the inhibition at 1 µM came out at 53.5%.

Staying with this test, now noted: compound at 10 μM.
`Nc1ccccc1NC(=O)c1ccc(CNC(=O)c2cccc3ccccc23)cc1` [Compound V-15] had an inhibition at 10 µM of 67.5%.

`Nc1ccc(-c2ccco2)cc1NC(=O)c1ccc(CNC(=O)c2nc3ccccc3[nH]2)cc1` [Compound V-14] gave an inhibition at 10 µM of 87.2%.

Compound `Nc1ccc(F)cc1NC(=O)c1ccc(CNC(=O)c2cccc3ccccc23)cc1` [Compound V-17] showed an inhibition at 10 µM of 76.2%.

In turn, `CC(=O)c1ccc2[nH]c(C(=O)NCc3ccc(C(=O)Nc4ccccc4N)cc3)cc2c1` [Compound V-26] registered an inhibition at 10 µM of 70.8%.

On to `Nc1ccc2[nH]c(C(=O)NCc3ccc(C(=O)Nc4ccccc4N)cc3)cc2c1` [Compound V-23], for which at 10 µM the inhibition was 78.8%.

As for `Nc1cnccc1NC(=O)c1ccc(CNC(=O)c2cc3ccccc3s2)cc1` [Compound V-28], 10 µM produced 77.4% inhibition.
